The values below come from patent US12084399B2, “Crystalline tranilast salts and their pharmaceutical use” (NUFORMIX TECHNOLOGIES LIMITED, priority 2018, dated 2024).

The term pKa denotes the negative logarithm of the acid dissociation constant. The term solubility denotes the concentration that dissolves in the medium under given conditions.

Data set [1] is described as follows: Dissolution study in simulated intestinal fluid (FaSSIF V2). The data set is classed as physicochemical. The conditions noted are these: 50 ml FaSSIF V2, pH 6.5, 37° C. The text has this:
For BCS class II drugs, such as tranilast, the rate of dissolution of the drug form used in the gastrointestinal media can be the controlling factor in the overall absorption and thus the bioavailability of an oral drug. This becomes even more influential as the dose of a drug increases. For conditions such as fibrosis or cancer where a higher dose of tranilast may be needed for successful treatment, finding a form of tranilast that has a high dissolution rate is important. […] Pat. […] The dissolution study was carried out using the Pion inForm® instrument. Detection and quantification of tranilast was performed by in-situ UV-spectroscopy using a fibre-optic probe, allowing instantaneous data collection from the point of sample introduction.

Data set [2] is described as follows: Solid-state photostability study (UV irradiation, HPLC). The conditions noted are these: for solid-state photostability (in words): UV irradiation up to 24 hours. As for the experimental part:
A 6-10 mg sample of each of the tranilast forms under investigation was spread over the bottom surface of a clear glass vial.

Data set [3] in a line: Solution photostability study (UV irradiation, HPLC). The settings on record: 2 mg dissolved in water (1 ml).
Method: (§1) A 2 mg sample of the four salt forms under investigation were each weighed into a clear glass vial. Each sample was dissolved in water (1 ml).
The conditions of data set [4]: for Solubility (mg/ml) in terms of the mass of tranilast dissolved: water pH7.0, 25° C., 24 hours.
A short description of data set [5]: pKa values and ΔpKa of tranilast and the salt formers. The text has this: When two solid components are successfully crystallised together to form a two-component molecular complex with a new unique solid-state crystalline structure this could result in either a salt or a cocrystal. Whether a salt or a cocrystal is formed is dependent on whether a proton transfer takes place between the two different components of the complex. If a proton is transferred from one component to the other resulting in ionic bonding then a crystalline salt results. If no proton transfer occurs and the components remain in their neutral state, held together only by hydrogen bonds, Van der Waals bonds etc, then a cocrystal is formed. Whether or not proton transfer takes place is governed by the difference in pKa values for the acidic and basic functional groups of each component.

For data set [6] the following is noted: buffer, 2 mg/ml.
Method: as §1
The conditions of data set [7]: protonated basic functional group of the salt former; cited from earlier work.
The nature of data set [8]: Solid-state accelerated stability, 40° C. and 75% relative humidity, 7 days, XRPD. In kind it is physicochemical. As for the experimental part:
A study was carried out to examine the physical stability of the crystalline 1:1 tranilast N-methylglucamine salt polymorphs with respect to solid form conversion over time under accelerated conditions. […] After this time each sample was analysed by XRPD to observe any potential form changes.
A study was carried out to examine the physical stability of the 1:1 crystalline tranilast salts with respect to solid form conversion or deliquescence over time under accelerated conditions. […] Each sample was analysed by XRPD to observe any potential form changes.

Data set [9] can be described thus: Solid-state stability under high storage temperature, 90° C., 7 days, XRPD. The conditions noted are these: oven at 90° C. The data set is classed as physicochemical. The procedure: A third study was carried out to explore the solid-state stability of the crystalline 1:1 tranilast N-methylglucamine salt polymorphs under high storage temperatures. Forms I and II of 1:1 tranilast N-methylglucamine salt (50 mg) were stored in an oven at 90° C. for 7 days. After this time each sample was analysed by XRPD to observe any potential form changes.

The nature of data set [10]: Solid-state stability under high humidity, 25° C. and 100% relative humidity, 7 days, XRPD. The data set is classed as physicochemical. The settings on record: sealed container. As for the experimental part: A second study was carried out to explore the solid-state stability of the crystalline 1:1 tranilast N-methylglucamine salt polymorphs under high humidity. Forms I and II of 1:1 tranilast N-methylglucamine salt (50 mg) were separately placed in a sealed container at 25° C. and 100% relative humidity and stored under these conditions for 7 days. After this time each sample was analysed by XRPD to observe any potential form changes.

A short description of data set [11]: Gravimetric vapour sorption (GVS) analysis. In kind it is physicochemical. The settings on record: for moisture reversibly absorbed (GVS): across the 90% humidity range at 25° C. An excerpt: The moisture sorption isotherm graph obtained for the crystalline 1:1 tranilast N-methylglucamine Form I salt is shown in FIG. 5.
The moisture sorption isotherm graph obtained for the crystalline 1:1 tranilast N-methylglucamine Form II salt is shown in FIG. 10.

The conditions of data set [12]: cited from earlier work.
The mark [13] stands for this setting: sealed container, 40° C. and 75% relative humidity, 7 days.

Counter-ions that a name gives are not always drawn. Like-named read-outs stand apart in the source and are kept apart here.

With `COc1ccc(/C=C/C(=O)Nc2ccccc2C(=O)O)cc1OC.NC(=O)c1cccnc1` [1:1 tranilast nicotinamide cocrystal], the “solubility reached after 30 seconds” value in data set [1] (30 seconds) is 2700 µg/mL. Also, in data set [1] (5 minutes), the “solubility after 5 minutes” value is 1950 µg/mL. Moreover, the “solubility after 20 minutes” value in [1] (20 minutes) is 1700 µg/mL.
For `CCNCC` [Diethylamine], the “% tranilast remaining after UV exposure” value in data set [2] (solid state, 2 hrs) was 99.57%; in [2] (solid state, 6 hrs) it was 99.61%; in [2] (solid state, 24 hrs), 99.63%; in data set [3] (2 hrs), 92.06%; in data set [3] (6 hrs), 52.30%; in [3] (24 hrs), 20.72%.
Regarding `NCCCC[C@H](N)C(=O)O` [L-Lysine], the “Solubility (mg/ml) in terms of the mass of tranilast dissolved” value in data set [4] is 277 to 283 mg/mL. Further, the “% tranilast remaining after UV exposure” value in data set [2] (solid state, 2 hrs) is 99.35%; in data set [2] (solid state, 6 hrs) it was 99.53%; in data set [2] (solid state, 24 hrs), 99.54%; in data set [3] (2 hrs), 92.53%; in data set [3] (6 hrs) it was 55.98%; in data set [3] (24 hrs) it was 21.03%.
As for `NCCCC[C@H](N)C(=O)O` [Lysine], the ΔpKa in data set [5] was determined as 5.70.
For the molecule `CCNC[C@H](O)[C@@H](O)[C@H](O)[C@H](O)CO` [N-ethylglucamine], the “% tranilast remaining after UV exposure” value in [2] (2 h) worked out at 99.55%; in data set [2] (6 h), 99.61%; in [2] (24 h) it was 99.47%; in [6] (2 h) it was 84.13%; in data set [6] (6 h), 58.20%; in [6] (24 h) it was 35.90%. Also, the pKa in data set [7] is on record as 9.52. Also, the ΔpKa in [5] stood at 6.27.
For `CNC[C@H](O)[C@@H](O)[C@H](O)[C@H](O)CO` [N-methylglucamine Form II], the “% tranilast remaining after UV exposure” value in data set [2] (2 h) was 99.50%; in data set [2] (6 h), 99.58%; in [2] (24 h) it was 99.51%.
Take `CNC[C@H](O)[C@@H](O)[C@H](O)[C@H](O)CO` [N-methylglucamine]: in [5] (pKa (protonated base) - pKa (acid), salt former versus tranilast), the ΔpKa stood at 6.27.
As to `COc1ccc(/C=C/C(=O)Nc2ccccc2C(=O)O)cc1OC.OCCNCCO` [Tranilast Salt Diethanolamine, Crystalline Tranilast Diethanolamine Salt], in [8] (setting [13]), the deliquescence result is “no signs of deliquescence” and the “solid form conversion (XRPD)” value was “retained their original crystalline form”.
Take `CCNCC.COc1ccc(/C=C/C(=O)Nc2ccccc2C(=O)O)cc1OC` [Tranilast Salt Diethylamine, Crystalline 1:1 Tranilast Diethylamine Salt]: in data set [4], the “Solubility (mg/ml) in terms of the mass of tranilast dissolved” value was 18 to 20 mg/mL. In addition, the “solid-state photostability (in words)” value in [2] (solid state) is recorded as “photostable”. Moreover, in [8] (setting [13]), the deliquescence entry was “no signs of deliquescence” and the “solid form conversion (XRPD)” value is reported as “retained their original crystalline form”.
Take `COc1ccc(/C=C/C(=O)Nc2ccccc2C(=O)O)cc1OC.NCCO` [Tranilast Salt Ethanolamine, Crystalline Tranilast Ethanolamine Salt]: in data set [8] (setting [13]), the deliquescence result is “no signs of deliquescence” and the “solid form conversion (XRPD)” value is on record as “retained their original crystalline form”.
As to `COc1ccc(/C=C/C(=O)Nc2ccccc2C(=O)O)cc1OC.NCCCC[C@H](N)C(=O)O` [Tranilast Salt L-Lysine, Crystalline 1:1 Tranilast L-Lysine Salt], the “solid-state photostability (in words)” value in data set [2] (solid state) was “photostable”. Also, in data set [8], the deliquescence result is given as “no signs of deliquescence” and the “solid form conversion (XRPD)” value is listed as “retained their original crystalline form”.
As to `CCNC[C@H](O)[C@@H](O)[C@H](O)[C@H](O)CO.COc1ccc(/C=C/C(=O)Nc2ccccc2C(=O)O)cc1OC` [Tranilast Salt N-ethylglucamine, Crystalline 1:1 Tranilast N-Ethylglucamine Salt], in [8] (setting [13]), the deliquescence entry is “no signs of deliquescence” and the “solid form conversion (XRPD)” value is recorded as “retained their original crystalline form”.
Take `CNC[C@H](O)[C@@H](O)[C@H](O)[C@H](O)CO.COc1ccc(/C=C/C(=O)Nc2ccccc2C(=O)O)cc1OC` [Tranilast Salt N-methylglucamine Form I, Crystalline 1:1 Tranilast N-methylglucamine Form I Salt]: in data set [4] (pH 7), the “aqueous solubility (mass of salt)” value is listed as “greater than 1000 mg/ml”. Also, the “solid form conversion (XRPD)” value in [8] (setting [13]), in [9] and in data set [10] was “retained their original crystalline form” each time. For the same molecule, in data set [11] (XRPD of the sample at 0% RH and 90% RH), the “form conversion in GVS (XRPD)” value was “did not demonstrate any form conversion”. In [11] (listed as crystalline 1:1 tranilast N-methylglucamine Form I salt), the “moisture reversibly absorbed (GVS)” value is 1.4 % w/w.
Take `CNC[C@H](O)[C@@H](O)[C@H](O)[C@H](O)CO.COc1ccc(/C=C/C(=O)Nc2ccccc2C(=O)O)cc1OC` [Tranilast Salt N-methylglucamine Form II, Crystalline 1:1 Tranilast N-methylglucamine Form II Salt]: in data set [11] (listed as crystalline 1:1 tranilast N-methylglucamine form II salt), the “moisture reversibly absorbed (GVS)” value was determined as 0.42 % w/w.
For the molecule `COc1ccc(/C=C/C(=O)Nc2ccccc2C(=O)[O-])cc1OC.O.[K+]` [Tranilast Salt Potassium Monohydrate, Crystalline 1:1 Tranilast Potassium Monohydrate Salt], in [8] (setting [13]), the deliquescence result is recorded as “no signs of deliquescence” and the “solid form conversion (XRPD)” value is given as “retained their original crystalline form”.
As for `COc1ccc(/C=C/C(=O)Nc2ccccc2C(=O)O)cc1OC` [crystalline 1:1 tranilast sodium salt], the figures for the “apparent solubility relative to pure crystalline tranilast (in words)” value in data set [12] and in data set [12] (listed as crystalline tranilast sodium salt) were “lower apparent solubility than pure tranilast” and “even less than that of pure tranilast”, respectively. Further, in data set [1] (simulated intestinal fluid (FaSSIF V2), thermodynamic from solid, 20 minutes), the solubility at 20 minutes is 300 µg/mL.
